Experimental data published in paper PMC4468025 (Biochemical pharmacology, 2015).
“Also recorded” adds a separate entry of the source. Read-outs that look alike come from different tables or passages of the source.

Assays:
[1] = system: Pseudomonas aeruginosa exotoxin A cytotoxicity in CHO DG44 cells; assay: Pseudomonas exotoxin A assay; format: cell-based, Chinese hamster
[2] = system: HT1080 fibrosarcoma cells; assay: HT1080 cell migration assay; format: cell-based, human; settings: for inhibition at 100 µM: Homo sapiens, HT-1080, 24 h, read-out: inhibition of HT1080 cell migration, 100 µM, 24 h
Soluble human furin = Soluble human furin (Homo sapiens, UniProt P09958); assay: Furin enzyme assay, IC50 and Ki determination
Sequence of Soluble human furin (P09958 108-715 limits assumed): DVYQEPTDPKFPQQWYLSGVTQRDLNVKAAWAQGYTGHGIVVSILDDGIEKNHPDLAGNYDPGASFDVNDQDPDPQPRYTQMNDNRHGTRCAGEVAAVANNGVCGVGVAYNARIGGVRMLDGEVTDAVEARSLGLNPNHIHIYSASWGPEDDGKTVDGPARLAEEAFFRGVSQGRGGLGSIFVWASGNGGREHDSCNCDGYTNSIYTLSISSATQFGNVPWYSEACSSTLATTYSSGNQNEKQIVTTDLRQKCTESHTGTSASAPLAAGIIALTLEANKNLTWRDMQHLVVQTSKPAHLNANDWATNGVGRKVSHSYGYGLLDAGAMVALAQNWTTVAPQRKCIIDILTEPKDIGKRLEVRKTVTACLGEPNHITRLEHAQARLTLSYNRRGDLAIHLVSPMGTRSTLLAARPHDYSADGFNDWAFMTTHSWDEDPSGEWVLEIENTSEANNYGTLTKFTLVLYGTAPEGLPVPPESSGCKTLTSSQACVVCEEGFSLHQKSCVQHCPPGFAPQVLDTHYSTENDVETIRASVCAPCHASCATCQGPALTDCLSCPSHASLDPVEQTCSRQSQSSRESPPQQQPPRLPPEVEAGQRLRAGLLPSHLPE

[3] = system: Golgi furin in CHO-GRAPfurin cells; assay: SEAP activity assay in CHO-GRAPfurin cells; format: cell-based, Chinese hamster; settings: 100 µM, 20–24 h
[4] = system: anthrax toxin (PA + LF) cytotoxicity in RAW264.7 cells; format: cell-based, murine
PACE4 = settings: cited from earlier work
furin = settings: Ki values taken from the literature; cited from earlier work
PC5 = settings: cited from earlier work
skin tumor = settings: cited from earlier work
PC1/3 = PC1/3 inhibition; format: biochemical; settings: for inhibition of PC1/3 (in words): 10 µM; for inhibition of PC1/3: 100 µM
[5] = system: human fibrosarcoma HT1080 cells; settings: by inhibiting proMT1-MMP processing; cited from earlier work
[6] = concentration not stated in the sentence (10 and 100 µM tested)

Row | Compound | protection against Pseudomonas exotoxin A (in words) [1, 6] | inhibition at 100 µM [2] [%] | inhibition of intracellular (TGN) furin, SEAP release (in words) [3] | protection against anthrax toxicity (in words) ([4]; 10 µM inhibitor, 2 h) | protection against anthrax toxicity (in words) ([4]; 100 µM inhibitor, 2 h) | protection against anthrax toxicity (in words) [4, 6] | inhibition of cell migration (in words) ([2]; 100 µM, 24 h) | also measured
1 | N=C(N)Nc1ccc(Oc2cccc(Oc3ccc(NC(=N)N)cc3NC(=N)N)c2)c(NC(=N)N)c1 [compound 2f, 1,3-bis(2,4-diguanidinophenoxy)benzene] | good protection | 20 to 25 | only slightly inhibited | almost complete protection; also recorded: complete inhibition of anthrax toxicity | excellent protection | highly efficient protection |  | inhibition of furin in vitro (in words) (Soluble human furin): micromolar potency
2 | N=C(N)Nc1ccc(OC2CC(Oc3ccc(NC(=N)N)cc3)C(NC(=N)N)CC2NC(=N)N)cc1 (centres unmarked) [compound 1g, 1,1'-(4,6-bis(4-guanidinophenoxy)cyclohexane-1,3-diyl)diguanidine] | only moderate protection; also recorded: modest effect |  | unable to inhibit | complete inhibition of anthrax toxicity |  | efficiently protected cells against anthrax; also recorded: potently prevented anthrax toxicity | did not inhibit cell migration; also recorded: unable to inhibit | cross-inhibition of PACE4 (in words) (PACE4): substantial cross-inhibition; potency against furin in vitro (in words) (furin): nanomolar potency; cross-inhibition of PC5 (in words) (PC5): substantial cross-inhibition
3 | dec-RVKR-CMK |  |  |  |  |  |  |  | skin tumor progression (in words) (skin tumor): decreases skin tumor progression
4 | N=C(N)Nc1ccc(OCCCOc2ccc(NC(=N)N)cc2NC(=N)N)c(NC(=N)N)c1 [2d, 1,3-bis(2,4-diguanidinophenoxy)propane] | good protection |  |  |  | excellent protection |  |  | inhibition of HT1080 cell migration ([2]; 100 µM, 24 h): around 40%; inhibition of PC1/3 (in words) (PC1/3): no inhibition detected; inhibition of PC1/3 (PC1/3): 51%
5 | N=C(N)Nc1ccc(Oc2cccc(Oc3ccc(NC(=N)N)cc3)c2)cc1 [compound 2c, 1,3-bis(4-guanidinophenoxy)benzene] |  |  |  |  |  |  | the most potent inhibitor; also recorded: inhibited migration; also recorded: completely inhibited cell mobility | 
6 | N=C(N)Nc1ccc(OCCCOc2ccc(NC(=N)N)cc2)cc1 [compound 2a, 1,3-bis(4-guanidinophenoxy)propane] |  | ~40 |  |  | unable to block anthrax toxicity |  | inhibited migration | 
7 | N=C(N)Nc1ccc(OC2CC(Oc3ccc(NC(=N)N)cc3NC(=N)N)C(NC(=N)N)CC2NC(=N)N)cc1 (centres unmarked) [compound 1b, 1,1'-(4-((2,4-diguanidino-5-(4-guanidinophenoxy)cyclohexyl)oxy)-1,3-phenylene)diguanidine] | protect cells against Bacillus anthracis (anthrax) and Pseudomonas aeruginosa intoxication; also recorded: capable of blocking both Pseudomonas and anthrax toxemia at low doses | 35 | block release of a Golgi reporter; also recorded: able to inhibit intracellular furin; also recorded: able to inhibit TGN furin | complete inhibition of anthrax toxicity |  | protect cells against Bacillus anthracis (anthrax); also recorded: capable of blocking both Pseudomonas and anthrax toxemia at low doses | retard tumor cell migration; also recorded: good inhibitors of cell migration; also recorded: inhibited cell migration | protection against Pseudomonas exotoxin A (in words) ([1]; 10 µM inhibitor, 20–24 h): completely prevent Pseudomonas toxin cytotoxicity; potency against furin in vitro (in words) (furin): nanomolar potency
8 | N=C(N)Nc1ccc(O[C@@H]2CCC[C@H](Oc3ccc(NC(=N)N)cc3)C2)cc1 [2b, cis-1,3-bis(4-guanidinophenoxy)cyclohexane] |  | ~40 |  |  |  |  | inhibited migration | 
9 | naphthofluorescein disodium salt [B3] |  |  |  |  |  |  |  | cell mobility and invasiveness of HT1080 cells (in words) [5]: prevented cell mobility and invasiveness
10 | N=C(N)Nc1ccc(O[C@@H]2CCC[C@H](Oc3ccc(NC(=N)N)cc3NC(=N)N)C2)c(NC(=N)N)c1 [2e, cis-1,3-bis(2,4-diguanidinophenoxy)cyclohexane] | good protection | 20 to 25 |  |  | excellent protection |  |  | inhibition of PC1/3 (in words) (PC1/3): no inhibition detected; inhibition of PC1/3 (PC1/3): 38%
